# Values of other authors as cited in patent US10010703B2, “Drug device configured for wireless communication” (POP TEST ABUSE DETERRENT TECHNOLOGY LLC, priority 2014, dated 2018).
# Assays:
# estrogen receptor = molecular target: T1, estrogen receptor (Homo sapiens, UniProt P03372)
# T1 sequence (P03372 1-595): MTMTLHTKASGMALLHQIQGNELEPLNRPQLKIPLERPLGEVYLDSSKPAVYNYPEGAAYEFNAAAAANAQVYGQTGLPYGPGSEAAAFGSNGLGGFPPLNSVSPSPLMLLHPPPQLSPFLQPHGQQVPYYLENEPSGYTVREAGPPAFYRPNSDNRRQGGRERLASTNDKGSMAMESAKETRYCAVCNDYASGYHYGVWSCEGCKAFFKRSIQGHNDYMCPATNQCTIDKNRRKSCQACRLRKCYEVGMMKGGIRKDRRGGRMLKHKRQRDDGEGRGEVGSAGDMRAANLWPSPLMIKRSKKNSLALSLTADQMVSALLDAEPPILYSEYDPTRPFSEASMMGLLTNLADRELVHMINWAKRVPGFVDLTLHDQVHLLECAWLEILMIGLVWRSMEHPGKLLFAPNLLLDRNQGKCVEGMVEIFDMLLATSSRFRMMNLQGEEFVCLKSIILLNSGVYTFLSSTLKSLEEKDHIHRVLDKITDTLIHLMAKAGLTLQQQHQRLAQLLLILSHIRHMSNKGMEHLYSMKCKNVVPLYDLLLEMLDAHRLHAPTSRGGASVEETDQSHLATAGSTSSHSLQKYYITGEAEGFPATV
# glucocorticoid receptor = molecular target: T2, glucocorticoid receptor (Homo sapiens, UniProt P04150)
# T2 sequence (P04150 1-777): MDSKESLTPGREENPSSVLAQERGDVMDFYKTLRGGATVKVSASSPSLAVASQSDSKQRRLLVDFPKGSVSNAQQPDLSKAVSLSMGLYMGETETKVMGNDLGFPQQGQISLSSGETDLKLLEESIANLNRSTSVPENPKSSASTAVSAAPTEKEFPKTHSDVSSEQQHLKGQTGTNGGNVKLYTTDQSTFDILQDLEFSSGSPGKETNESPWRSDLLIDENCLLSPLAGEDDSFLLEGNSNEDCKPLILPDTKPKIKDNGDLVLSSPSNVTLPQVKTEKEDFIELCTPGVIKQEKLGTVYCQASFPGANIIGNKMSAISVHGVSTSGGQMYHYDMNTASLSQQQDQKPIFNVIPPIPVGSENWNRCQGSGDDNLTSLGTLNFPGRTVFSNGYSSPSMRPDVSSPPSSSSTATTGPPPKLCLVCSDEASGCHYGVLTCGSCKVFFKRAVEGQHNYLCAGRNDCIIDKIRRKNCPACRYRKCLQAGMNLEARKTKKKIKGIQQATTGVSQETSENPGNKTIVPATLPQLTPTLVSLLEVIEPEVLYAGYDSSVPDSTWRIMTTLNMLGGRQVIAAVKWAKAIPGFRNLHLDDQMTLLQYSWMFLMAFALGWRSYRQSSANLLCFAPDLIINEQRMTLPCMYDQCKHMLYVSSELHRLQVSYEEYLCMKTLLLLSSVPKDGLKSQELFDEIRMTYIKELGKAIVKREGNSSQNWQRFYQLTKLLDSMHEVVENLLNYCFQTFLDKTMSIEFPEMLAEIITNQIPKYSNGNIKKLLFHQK
# progesterone receptor = molecular target: T3, progesterone receptor (Homo sapiens, UniProt P06401)
# T3 sequence (P06401 1-933): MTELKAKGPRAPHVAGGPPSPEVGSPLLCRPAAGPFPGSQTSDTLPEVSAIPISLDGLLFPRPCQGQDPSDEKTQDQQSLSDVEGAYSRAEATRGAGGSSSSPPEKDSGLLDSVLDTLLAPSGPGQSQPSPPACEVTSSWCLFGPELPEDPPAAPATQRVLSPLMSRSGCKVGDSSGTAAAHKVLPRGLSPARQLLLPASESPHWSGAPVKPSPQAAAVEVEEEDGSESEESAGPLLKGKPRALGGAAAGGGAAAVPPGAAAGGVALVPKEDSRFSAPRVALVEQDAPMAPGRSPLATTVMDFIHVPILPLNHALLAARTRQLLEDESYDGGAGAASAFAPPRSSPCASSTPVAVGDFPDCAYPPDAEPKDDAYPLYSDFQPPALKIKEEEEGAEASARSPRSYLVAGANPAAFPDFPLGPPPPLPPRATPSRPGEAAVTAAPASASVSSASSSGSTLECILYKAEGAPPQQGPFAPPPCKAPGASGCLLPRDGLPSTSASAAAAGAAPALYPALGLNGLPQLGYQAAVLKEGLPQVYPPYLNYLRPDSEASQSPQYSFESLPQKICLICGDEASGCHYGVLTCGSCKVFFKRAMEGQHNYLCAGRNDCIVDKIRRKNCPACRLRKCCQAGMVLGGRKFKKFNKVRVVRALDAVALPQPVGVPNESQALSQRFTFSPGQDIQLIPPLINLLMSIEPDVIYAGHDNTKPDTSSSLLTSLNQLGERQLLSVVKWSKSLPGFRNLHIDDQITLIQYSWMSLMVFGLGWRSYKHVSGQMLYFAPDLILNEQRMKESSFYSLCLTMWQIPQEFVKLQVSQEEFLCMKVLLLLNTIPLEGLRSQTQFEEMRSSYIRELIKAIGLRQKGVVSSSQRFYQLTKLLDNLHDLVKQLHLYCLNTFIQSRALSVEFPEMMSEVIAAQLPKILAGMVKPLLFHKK
# [1] = phase I and phase II clinical trials
smiles,measurement,setting,value
"CC#C[C@]1(O)CC[C@H]2[C@@H]3CCC4=CC(=O)CCC4=C3[C@@H](c3ccc4c(c3)OCO4)C[C@@]21C [ORG 34517, (11β,17β)-11-(1,3-benzodioxol-5-yl)-17-hydroxy-17-(1-propynyl) estra-4,9-dien-3-one]",affinity for / cross-binding to estrogen receptor,estrogen receptor,without significant cross-binding
same,glucocorticoid receptor binding affinity,glucocorticoid receptor,high
same,affinity for / cross-binding to progesterone receptor,progesterone receptor,without significant cross-binding
same,significant toxicities and side effects,[1],none were identified
